Assay results from the supplement of paper PMC10307832.

Columns and labels:
Experiment in all cases: relative viability (nuclei count vs DMSO), 5 days (fraction); higher = more cells survive
Alisertib + Navitoclax = compound: COc1cc(Nc2ncc3c(n2)-c2ccc(Cl)cc2C(c2c(F)cccc2OC)=NC3)ccc1C(=O)O [Alisertib] + CC1(C)CCC(c2ccc(Cl)cc2)=C(CN2CCN(c3ccc(C(=O)NS(=O)(=O)c4ccc(N[C@H](CCN5CCOCC5)CSc5ccccc5)c(S(=O)(=O)C(F)(F)F)c4)cc3)CC2)C1 [Navitoclax] (partner 0.5 µM)
Summary of the method: (§1)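 Medians of duplicate plates are given as relative viability. That measure is the nuclei count in treated wells divided by the count in vehicle wells. Counts were taken on 4× images of lung cancer cell lines in 1536-well plates, 5 days after pin-tool dosing the day after seeding with one drug alone or a fixed anchor-drug dose plus five library-drug doses (not always all listed) in √10 steps.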

Alisertib + Linsitinib = compound: COc1cc(Nc2ncc3c(n2)-c2ccc(Cl)cc2C(c2c(F)cccc2OC)=NC3)ccc1C(=O)O [Alisertib] + C[C@]1(O)C[C@@H](c2nc(-c3ccc4ccc(-c5ccccc5)nc4c3)c3c(N)nccn32)C1 [Linsitinib] (partner 1 µM)
Summary of the method: as §1

Alisertib + Foretinib = compound: COc1cc(Nc2ncc3c(n2)-c2ccc(Cl)cc2C(c2c(F)cccc2OC)=NC3)ccc1C(=O)O [Alisertib] + COc1cc2c(Oc3ccc(NC(=O)C4(C(=O)Nc5ccc(F)cc5)CC4)cc3F)ccnc2cc1OCCCN1CCOCC1 [Foretinib] (partner 0.25 µM)
Summary of the method: as §1

Alisertib + Luminespib = compound: COc1cc(Nc2ncc3c(n2)-c2ccc(Cl)cc2C(c2c(F)cccc2OC)=NC3)ccc1C(=O)O [Alisertib] + CCNC(=O)c1noc(-c2cc(C(C)C)c(O)cc2O)c1-c1ccc(CN2CCOCC2)cc1 [Luminespib] (partner 0.01 µM)
Summary of the method: as §1

| Cell Line | relative viability (Alisertib + Navitoclax; first compound 0.005 µM) | relative viability (Alisertib + Navitoclax; first compound 0.01581 µM) | relative viability (Alisertib + Navitoclax; first compound 0.05 µM) | relative viability (Alisertib + Navitoclax; first compound 0.1581 µM) | relative viability (Alisertib + Navitoclax; first compound 0.5 µM) | relative viability (Alisertib + Linsitinib; first compound 0.005 µM) | relative viability (Alisertib + Linsitinib; first compound 0.01581 µM) | relative viability (Alisertib + Linsitinib; first compound 0.05 µM) | relative viability (Alisertib + Linsitinib; first compound 0.1581 µM) | relative viability (Alisertib + Linsitinib; first compound 0.5 µM) | relative viability (Alisertib + Foretinib; first compound 0.005 µM) | relative viability (Alisertib + Foretinib; first compound 0.01581 µM) | relative viability (Alisertib + Foretinib; first compound 0.05 µM) | relative viability (Alisertib + Foretinib; first compound 0.1581 µM) | relative viability (Alisertib + Foretinib; first compound 0.5 µM) | relative viability (Alisertib + Luminespib; first compound 0.005 µM) | relative viability (Alisertib + Luminespib; first compound 0.01581 µM) | relative viability (Alisertib + Luminespib; first compound 0.05 µM) | relative viability (Alisertib + Luminespib; first compound 0.1581 µM) | relative viability (Alisertib + Luminespib; first compound 0.5 µM) |
| --- | --- | --- | --- | --- | --- | --- | --- | --- | --- | --- | --- | --- | --- | --- | --- | --- | --- | --- | --- | --- |
| HCC-78 | 0.681 | 0.514 | 0.176 | 0.131 | 0.131 | 0.412 | 0.418 | 0.183 | 0.15 | 0.187 | 0.548 | 0.438 | 0.329 | 0.238 | 0.275 | – | – | – | – | – |
| HCC-366 | 0.976 | 1.04 | 0.094 | 0.0103 | 0.019 | 0.688 | 0.611 | 0.043 | 0.0079 | 0.0142 | 0.975 | 0.156 | 0.035 | 0.054 | 0.055 | – | – | – | – | – |
| HCC-827 | 1.01 | 1 | 0.545 | 0.324 | 0.249 | 0.908 | 0.928 | 0.543 | 0.434 | 0.316 | 1.05 | 0.726 | 0.333 | 0.276 | 0.237 | 0.48 | 0.598 | 0.204 | 0.209 | 0.234 |
| HOP-62 | 0.966 | 0.919 | 0.214 | 0.139 | 0.0669 | 0.551 | 0.853 | 0.305 | 0.203 | 0.155 | 1.08 | 0.876 | 0.285 | 0.256 | 0.205 | 0.845 | 0.808 | 0.288 | 0.259 | 0.153 |
| IA-LM | 0.654 | 0.59 | 0.313 | 0.164 | 0.0604 | 0.478 | 0.659 | 0.324 | 0.223 | 0.0931 | 1.11 | 1.09 | 0.737 | 0.214 | 0.0846 | – | – | – | – | – |
| LC-2-ad | 0.328 | 0.159 | 0.0861 | 0.114 | 0.0846 | 0.643 | 0.399 | 0.187 | 0.135 | 0.121 | 0.803 | 0.597 | 0.503 | 0.351 | 0.285 | 0.892 | 0.435 | 0.39 | 0.392 | 0.32 |
| LCLC-97TM1 | 0.523 | 0.353 | 0.121 | 0.116 | 0.115 | 0.197 | 0.185 | 0.135 | 0.114 | 0.0896 | 0.91 | 0.707 | 0.379 | 0.253 | 0.182 | 0.787 | 0.601 | 0.318 | 0.177 | 0.12 |
| LCLC-103H | – | – | – | – | – | 1.05 | 1.03 | 1.03 | 0.235 | 0.297 | 0.759 | 0.544 | 0.283 | 0.272 | 0.236 | 0.949 | 0.883 | 0.278 | 0.311 | 0.269 |
| LK-2 | 0.859 | 0.722 | 0.356 | 0.181 | 0.225 | 0.519 | 0.454 | 0.337 | 0.206 | 0.175 | 0.955 | 0.979 | 0.601 | 0.245 | 0.189 | 0.19 | 0.165 | 0.184 | 0.18 | 0.187 |
